Experimental data published in patent US5741917A, “Process for the preparation of acyloxyalkanesulfonates having improved properties” (Hoechst Aktiengesellschaft, priority 1995, dated 1998).

Conditions: deionized water

sodium C13 to C15 -acylisethionate [Example 4]
Water solubility (maximum concentration giving a clear solution): 10%
